# Assays:
# fibronectin = assay: Fibronectin production due to TGF-β2 in iFECD, immunostaining and western blot (Example 17); format: cell-based, human; conditions: TGF-β2 10 ng/mL, inhibitor 10 μM, 24 hours
# Description: Round glass was placed on a 24-well plate, disinfected for 5 minutes with ethanol, and coated with laminin-511 E8 Fragment. Then, iFECDs were seeded at 4.0×10^5 each and cultured at 37° C. (5% CO2) until reaching 60 to 70% confluence. Dulbecco's Modified Eagle Medium (DMEM, nacalai tesque, 08456-36)+10% FBS (Thermo Fisher Scientific, S1820-500)+1% penicillin-streptomycin (nacalai tesque, 26252-94) was used as the medium. SB431542 (Wako Pure Chemical Industries, Ltd./192-16541), Z-VD-FMK (isomer mixture) (Wako Pure Chemical Industries, Ltd./262-02061), and emricasan (CHEMSCENE, LLC/CS-0599) were then added at a concentration of 10 μM, and the cells were incubated for 24 hours. The medium was exchanged in the control group and the TFG-β2 supplemented group. DMEM+2% FBS+1% P/S was used as the medium. TGF-β2 alone (10 ng/mL), or both TGF-β2 (10 ng/mL) and each inhibitor (10 μM) were then added. After 24 hours, immunostaining was performed by the following method.
# Cells after 24 hours form stimulation were washed with PBS (−) and immobilized with 4% PFA for 10 minutes at room temperature. 0.5% Triton was used for 5 minutes for permeation treatment, and 1% BSA was used for blocking for 1 hour. […] A confocal microscope (Leica Microsystems CMS GmcH Am Friendensplatz 3 68165 Mannheim, Germany) was used to observe fluorescence. […]
# [1] = test system: immobilized Fuchs' endothelial corneal dystrophy patient derived cells (iFECD); assay: Cell damage in iFECD due to TGF-β2, phase difference microscope (Example 9); format: cell-based, human; conditions: TGF-β2 10 ng/mL, inhibitor 10 μM, 24 hours
# Description: 1.2×10^5 iFECDs were seeded on a 12-well plate coated without coating and were cultured for 24 hours under the condition of 5% CO2 at 37° C. Dulbecco's Modified Eagle Medium (nacalai tesque, 26252-94)+10% FBS (Biological Industries/04-001-1A)+1% Penicillin-Streptomycin (nacalai tesque, 26252-94) was used as the medium.
# After 24 hours from seeding, each inhibitor was added at a concentration of 10 μM and the cells were incubated for 24 hours under the condition of 5% CO2 at 37° C. The medium was exchanged for the control group and the TGF-β2 group. DMEM+2% FBS+1% P/S was used as the medium.
# SB431542 (Wako Pure Chemical Industries, Ltd./192-16541); Z-VAD-FMK (Peptide Institute/3188-v); Z-VD-FMK (isomer mixture) (Wako Pure Chemical Industries, Ltd./262-02061); and emricasan (CHEMSCENE, LLC/CS-0599).
# Next, TGF-β2 (manufacturer: R&D Systems, Inc., distributor: Wako Pure Chemical Industries, Ltd./manufacturer codes 302-B2-002, 302-B2-010, distributor codes: 553-62881, 5-59-62883) (10 ng/mL) alone, or both TGF-β2 (10 ng/mL) and each inhibitor (10 μM) were added. After 24 hours, cell morphology and programmed cell death were observed using a phase difference microscope.
# p-Smad2 = p-Smad2 western blot in iFECD with TGF-β2 (Example 17); format: cell-based, human; conditions: TGF-β2 10 ng/mL, inhibitor 10 μM, 24 hours
# Description: IFECDs were seeded at 1.0×10^5 each on a 12-well plate and cultured at 37° C. (5% CO2) until reaching 60 to 70% confluence. Dulbecco's Modified Eagle Medium (DMEM, nacalai tesque, 08456-36)+10% FBS (Thermo Fisher Scientific, S1820-500)+1% penicillin-streptomycin (nacalai tesque, 26252-94) was used as the medium. SB431542 (Wako Pure Chemical Industries, Ltd./192-16541), Z-VD-FMK (isomer mixture) (Wako Pure Chemical Industries, Ltd./262-02061), and emricasan (CHEMSCENE, LLC/CS-0599) were then added at a concentration of 10 μM, and the cells were incubated for 24 hours. The medium was exchanged in the control group and the TFG-β2 supplemented group. DMEM+2% FBS+1% P/S was used as the medium. TGF-β2 alone (10 ng/mL), or both TGF-β2 (10 ng/mL) and each inhibitor (10 μm) were added. After 24 hours, proteins were collected by the following method.
# The medium was collected on ice to collect free and dead cells. The solution from washing the cells twice with 1×PBS (−) was also collected, and was centrifuged at 4° C. at 800×g for 15 minutes. The supernatant was discarded to obtain precipitates. […]
# Chemi Lumi ONE Ultra (nacalai tesque, 11644-40) was used for detection. The detected band strength was analyzed with Amersham™ Imager 600 (GE Healthcare).
# caspase 3 = assay: Western blot of caspase 3 after UV irradiation (Example 2); format: cell-based, monkey; conditions: UV 100 J/m^2, 9 hours
# Description: 1×10^5 cultured monkey corneal endothelial cells were seeded on a 12-well plate coated with FNC Coating Mix and were cultured until reaching confluence under the condition of 5% CO2 at 37° C. Dulbecco's Modified Eagle Medium (DMEM) (Gibco, 12320-032)+10% FBS+1% Penicillin-Streptomycin (nacalai tesque, 26252-94) was used as the medium.
# Each inhibitor was added at the above concentration. The cells were incubated for 18 hours under the condition of 5% CO2 at 37° C. The control group and the UV irradiation group were supplemented with a solvent of each reagent, i.e., DMSO (Dimethyl Sulfoxide, Sterile-filtered) (nacalai tesque, 13408-64). Gibco DMEM+1% P/S (penicillin-streptomycin mixture) was used as the medium.
# The cell supernatant was then removed, and the cells were irradiated with UV (100 J/m^2). After irradiation, media containing each inhibitor were added to the cells again. The cells were cultured for 9 hours.
# The cell morphology was observed under a phase difference microscope. After observation, western blot was performed on proteins by the following procedure.
# The medium was collected on ice to collect free and dead cells. The solution from washing the cells twice with 1×PBS (−) was also collected. 800 g was centrifuged at 4° C. for 5 minutes. The supernatant was discarded to obtain precipitates. The washed cells were supplemented with a protein extraction buffer (RIPA; 50 mM Tris-HCl (pH 7.4), 150 mM NaCl, 1 mM EDTA, 0.1% SDS, 0.5% DOC, 1% NP-40) on ice to extract proteins. The precipitates from centrifuging the free and dead cells were also subsequently suspended together for extraction. The collected solution was pulverized three times for 30 seconds in cold water with a sonication device (BIORUPTOR, TOSHO DENKI) and centrifuged for 10 min at 4° C. at 15000 rpm to collect the supernatant of proteins.
# 8 μg of the extracted protein was separated by SDS-PAGE and transferred onto a nitrocellulose membrane. A rabbit anti-caspase 3 antibody (Cell Signaling, 9662), rabbit anti-PARP antibody (Cell Signaling, 9542), and mouse anti-GAPDH antibody (MBL, M171-3) were used as the primary antibodies. A peroxidase-labeled anti-rabbit antibody and anti-mouse antibody (GE Healthcare Biosciences, NA934V, NA931V) were used as the secondary antibodies. For the primary antibodies, rabbit anti-caspase 3 antibody and rabbit anti-PARP antibody: 1000-fold dilution and mouse anti-GAPDH antibody: 3000-fold dilution, while the secondary antibody was diluted 5000-fold. Chemi Lumi ONE Ultra (nacalai tesque, 11644-40) was used for detection. The detected band strength was analyzed with a lumino image analyzer LAS-4000 mini (Fuji Film) and ImageQuant™ software (GE Healthcare).
# rabbit cornea = assay: Cornea preservation using rabbit cornea in Optisol-GS (Example 11); format: cell-based; conditions: 2 weeks of preservation at 4° C., 10 μM in Optisol-GS
# Description: Rabbit eye balls after 0 to 24 hours from euthanasia were used in the experiment. Under a stereoscopic microscope, the sclera was excised using spring scissors along the corneal limbus, and the lens and iris were removed to prepare a sclerocornea fragment. The sclerocornea fragment was divided into two pieces as the control group and emricasan supplemented groups. After dividing the cornea, the control group was left standing in DMSO supplemented Optisol-GS® (Bausch & Lomb) and the caspase inhibitor supplemented groups were left standing in Optisol-GS® supplemented with emricasan for 2 weeks at 4° C.
# After washing the sclerocornea fragment with PBS (−), the fragment was immobilized with 4% formaldehyde for 10 minutes at room temperature (RT) and incubated for 60 minutes with 1% bovine serum albumin (BSA). Antibodies to N-cadherin (BD Bioscience) and ZO-1 (Zymed Laboratories) were used at 1:300 dilution. For secondary antibodies, Alexa Fluor® 488 labeled goat anti-mouse IgG (Life Technologies, A11009) was used at a dilution of 1:1000. A 1:400 dilution of phalloidin (Life Technologies) 546 was used for actin staining. […] Fluorescence was observed using a confocal microscope (TCS SP2 AOBS; Leica Microsystems, Wetzlar Germany). Cells found to have actin contractile rings under a fluorescence microscope were counted to measure the ratio.
Structure (SMILES),expression / overexpression of fibronectin (fibronectin),programmed cell death [1],phosphorylated Smad2 (p-Smad2) (p-Smad2),inactive form cleaved caspase 3 of about 19 kDa (caspase 3; addition of 1 and 3 μM),active form cleaved caspase 3 of about 17 kDa (caspase 3; all tested concentrations),"inactive form cleaved caspase 3 of about 19 kDa (caspase 3; other concentrations (10, 30, 100 μM))",actin contractile rings (rabbit cornea),cell damage (rabbit cornea),effect of suppressing caspase 3 (caspase 3; concentration of 100 μM)
NC(=O)c1ccc(-c2nc(-c3ccc4c(c3)OCO4)c(-c3ccccn3)[nH]2)cc1 [SB431542],suppressed,suppressed,not found,,,,,,
"C[C@H](NC(=O)C(=O)Nc1ccccc1C(C)(C)C)C(=O)N[C@@H](CC(=O)O)C(=O)COc1c(F)c(F)cc(F)c1F [emricasan, 3-[2-[(2-tert-butyl-phenylaminooxalyl)-amino]-propionylamino]-4-oxo-5-(2,3,5,6-tetrafluoro-phenoxy)-pentanoic acid]",suppressed,,found,hardly observed,not observed,not observed,significantly suppressed,hardly any cell damage,
"CC(C)[C@@]1(C(=O)N[C@H]2CC(=O)O[C@]2(O)CF)CC(c2nccc3ccccc23)=NO1 [nivocasan, (R)—N-((2S,3S)-2-(fluoromethyl)-2-hydroxy-5-oxotetrahydrofuran-3-yl)-5-isopropyl-1-3-(isoquinoline-1-yl)-4,5-dihydroisoxazole-5-carboxamide]",,,,,,,,,observed
